Several values for one entry are separate records, joined by “and”; a condition that tells them apart may be missing. Equal values may be shown once. Toxic doses and inconclusive results are not listed.
Test system: P388 leukemia ip, CD2F1 mice, survival T/C
Test: NCI In Vivo Anticancer Drug Screen. Data for tumor model P388 Leukemia (intraperitoneal) in CD2F1 (CDF1) mice
Settings: endpoint: median survival time, higher = longer survival
Outline: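 Mice carrying the transplanted tumor received test compound or vehicle. Survival was recorded in each group, and the value is the treated-group measurement divided by that of the vehicle-treated control group.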

[1] = dose: 25.0 mg/kg/injection, schedule: Q01DX009 (ip), vehicle: Klucel (hydroxypropylcellulose) (HPC)
[2] = dose: 50.0 mg/kg/injection, schedule: Q01DX009 (ip), vehicle: Klucel (hydroxypropylcellulose) (HPC)
[3] = dose: 100.0 mg/kg/injection, schedule: Q01DX009 (ip), vehicle: Klucel (hydroxypropylcellulose) (HPC)
[4] = dose: 50.0 mg/kg/injection, schedule: Q01DX005 (ip), vehicle: saline with Tween-80
[5] = dose: 100.0 mg/kg/injection, schedule: Q01DX005 (ip), vehicle: saline with Tween-80
[6] = dose: 200.0 mg/kg/injection, schedule: Q01DX005 (ip), vehicle: saline with Tween-80
[7] = dose: 50.0 mg/kg/injection, schedule: Q01DX009 (ip), vehicle: saline with Tween-80
[8] = dose: 100.0 mg/kg/injection, schedule: Q01DX009 (ip), vehicle: saline with Tween-80

Question: How did the T/C (dose: 1.56 mg/kg/injection, schedule: Q01DX009 (ip), vehicle: Klucel (hydroxypropylcellulose) (HPC)) turn out when `Cn1c(=O)c2[nH]c(Cc3ccc4c(c3)OCO4)nc2n(C)c1=O` was run?
Answer: Its T/C is 98 % of control.

Question: And the T/C (dose: 3.13 mg/kg/injection, schedule: Q01DX009 (ip), vehicle: Klucel (hydroxypropylcellulose) (HPC))?
Answer: Its T/C is 97 % of control.

Question: And the T/C (dose: 6.25 mg/kg/injection, schedule: Q01DX009 (ip), vehicle: Klucel (hydroxypropylcellulose) (HPC))?
Answer: The T/C was 95 % of control.

Question: What about the T/C (dose: 12.5 mg/kg/injection, schedule: Q01DX009 (ip), vehicle: Klucel (hydroxypropylcellulose) (HPC)) of the same compound?
Answer: Its T/C is 101 % of control.

Question: What about the T/C [1] of the same compound?
Answer: Its T/C is 104 % of control.

Question: And the T/C [2]?
Answer: Its T/C is 87 % of control.

Question: What about the T/C [3] of the same compound?
Answer: The T/C was 107 % of control.

Question: And the T/C (dose: 200.0 mg/kg/injection, schedule: Q01DX009 (ip), vehicle: Klucel (hydroxypropylcellulose) (HPC))?
Answer: The T/C was 100 % of control.

Question: For `CC(Cc1ccccc1)NC(=O)c1ccncc1` (stereo unspecified), which T/C [4] is on record?
Answer: The T/C was 103 % of control.

Question: And the T/C [5]?
Answer: The T/C was 102 % of control.

Question: And the T/C [6]?
Answer: The T/C was 100 % of control.

Question: Which results are given for `OC1COCC1O` (stereo unspecified)?
Answer: T/C [1]: 100 % of control; T/C [2]: 102 % of control; T/C [3]: 100 % of control

Question: `CCC(CC)OCCN1CCN(CCCN2c3ccccc3Sc3ccc(C(F)(F)F)cc32)CC1` was tested. Which T/C (dose: 0.75 mg/kg/injection, schedule: Q01DX009 (ip), vehicle: saline with Tween-80) did it give?
Answer: The T/C was 110 % of control.

Question: And the T/C (dose: 1.5 mg/kg/injection, schedule: Q01DX009 (ip), vehicle: saline with Tween-80)?
Answer: The T/C was 94 % of control.

Question: What about the T/C (dose: 2.5 mg/kg/injection, schedule: Q04DX003 (ip), vehicle: saline) of the same compound?
Answer: The T/C was 110 % of control and 93 % of control.

Question: And the T/C (dose: 3.0 mg/kg/injection, schedule: Q01DX009 (ip), vehicle: saline with Tween-80)?
Answer: The T/C was 99 % of control.

Question: What about the T/C (dose: 5.0 mg/kg/injection, schedule: Q04DX003 (ip), vehicle: saline) of the same compound?
Answer: The T/C was 101 % of control and 97 % of control.

Question: And the T/C (dose: 6.0 mg/kg/injection, schedule: Q01DX009 (ip), vehicle: saline with Tween-80)?
Answer: The T/C was 100 % of control.

Question: And the T/C (dose: 10.0 mg/kg/injection, schedule: Q04DX003 (ip), vehicle: saline with Tween-80)?
Answer: The T/C was 99 % of control and 122 % of control.

Question: What about the T/C (dose: 10.0 mg/kg/injection, schedule: Q04DX003 (ip), vehicle: saline) of the same compound?
Answer: The T/C was 109 % of control and 96 % of control.

Question: And the T/C (dose: 12.0 mg/kg/injection, schedule: Q01DX009 (ip), vehicle: saline with Tween-80)?
Answer: The T/C was 110 % of control.

Question: And the T/C (dose: 20.0 mg/kg/injection, schedule: Q04DX003 (ip), vehicle: saline with Tween-80)?
Answer: Its T/C is 109 % of control and 119 % of control.

Question: What about the T/C (dose: 20.0 mg/kg/injection, schedule: Q04DX003 (ip), vehicle: saline) of the same compound?
Answer: Its T/C is 113 % of control and 98 % of control.

Question: `CCOC(=O)c1ccc(NN=NC)cc1` was tested. Which T/C (dose: 12.5 mg/kg/injection, schedule: Q01DX009 (ip), vehicle: saline with Tween-80) did it give?
Answer: Its T/C is 108 % of control and 113 % of control.

Question: What about the T/C [7] of the same compound?
Answer: Its T/C is 154 % of control and 173 % of control.

Question: And the T/C [8]?
Answer: Its T/C is 108 % of control and 91 % of control.

Question: For `CCOc1cccc2c1CCC(O[Si](C)(C)C(C)(C)C)C2` (stereo unspecified), which T/C [4] is on record?
Answer: Its T/C is 94 % of control.

Question: What about the T/C [5] of the same compound?
Answer: The T/C was 95 % of control.

Question: What about the T/C [6] of the same compound?
Answer: Its T/C is 96 % of control.

Question: Which T/C [4] does the source give for `Cc1cc(N)ccc1N=Nc1ccc(N=Nc2ccc(N=Nc3ccc4cc(S(=O)(=O)O)cc(S(=O)(=O)O)c4c3)c(C)c2)c(C)c1` here?
Answer: Its T/C is 114 % of control and 122 % of control.

Question: What about the T/C [5] of the same compound?
Answer: Its T/C is 115 % of control and 118 % of control and 124 % of control.

Question: What about the T/C [6] of the same compound?
Answer: Its T/C is 115 % of control.

Question: Which T/C (dose: 100.0 mg/kg/injection, schedule: Q04DX003 (ip), vehicle: other) does the source give for `Nc1ccc(C(O)(C(F)(F)F)C(F)(F)F)c(C(=O)O)c1` here?
Answer: Its T/C is 104 % of control.

Question: What about the T/C (dose: 200.0 mg/kg/injection, schedule: Q04DX003 (ip), vehicle: other) of the same compound?
Answer: The T/C was 100 % of control.

Question: What about the T/C (dose: 400.0 mg/kg/injection, schedule: Q04DX003 (ip), vehicle: other) of the same compound?
Answer: The T/C was 109 % of control.

Question: `C1COCCCOCCCOCCCC2(CCCOCCCOC1)OCCO2` was tested. Which T/C [4] did it give?
Answer: Its T/C is 102 % of control.

Question: What about the T/C [5] of the same compound?
Answer: The T/C was 102 % of control.

Question: And the T/C [6]?
Answer: The T/C was 101 % of control.

Question: What does the source list for `NC1(N2SC(S)=C3CCCC=C32)CCCCC1`?
Answer: T/C [7]: 97 % of control; T/C [8]: 100 % of control; T/C (dose: 200.0 mg/kg/injection, schedule: Q01DX009 (ip), vehicle: saline with Tween-80): 105 % of control

Question: With `Cc1cccc(C2(C)C(=O)c3ccccc3C2=O)c1` as the compound, how does the T/C (dose: 100.0 mg/kg/injection, schedule: Q04DX002 (ip), vehicle: saline) read?
Answer: Its T/C is 100 % of control.

Question: What about the T/C (dose: 200.0 mg/kg/injection, schedule: Q04DX002 (ip), vehicle: saline) of the same compound?
Answer: The T/C was 105 % of control.

Question: And the T/C (dose: 400.0 mg/kg/injection, schedule: Q04DX002 (ip), vehicle: saline)?
Answer: The T/C was 102 % of control.

From PubChem BioAssay AID330 (DTP/NCI, 2004)
